Laboratory results: US9029337B2, “Modulation of factor 7 expression” (Isis Pharmaceuticals, Inc., priority 2007, dated 2015)
Strand notation (5' to 3'): a small letter for the sugar, then the base; units joined by * are phosphorothioate-linked, units joined directly phosphodiester-linked; [ ] holds rarer units or linkages, { } end groups; capitals alone tell only the bases. e = 2'-O-(2-methoxyethyl) (MOE); [5mC] = 5-methylcytosine; d = 2'-deoxy (DNA)

Legend:
human Factor 7 mRNA = experiment: Dose-dependent antisense inhibition of human Factor 7 in HepB3 cells, lipofectin; assay type: cell-based; settings: for percent inhibition of Factor 7 mRNA, relative to untreated control cells: HepB3 cells, approx. 16 hours (Table 14); for percent inhibition of Factor 7: approximately 16 hours
Outline: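 HepB3 cells (4,000/well) lipofectin-transfected with antisense oligonucleotide at 3.125 or 6.25 up to 100 nM for ~16 h. Factor 7 mRNA measured by real-time RT-PCR with primer probe set RTS 2927, adjusted to RIBOGREEN total RNA; expressed as percent inhibition versus untreated control cells.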

murine Factor 7 protein = experiment: Plasma Factor 7 protein, Factor 7 chromogenic assay, BALB/c mice; assay type: in vivo, mouse
Description: BALB/c mice were treated with ISIS 403102 ([…], target site 11336, incorporated herein as SEQ ID NO: 161). BALB/c mice were injected subcutaneously with 5 mg/kg, 10 mg/kg, 25 mg/kg, or 50 mg/kg of ISIS 403102 twice a week for 3 weeks. A control group of mice was injected subcutaneously with PBS twice a week for 3 weeks. After the treatment period, whole liver was collected for RNA and protein analysis, and plasma was collected for clotting analysis (PT/aPTT).
Plasma Factor 7 protein was measured using a Factor 7 chromogenic assay (Hyphen BioMed). […] Results are presented as percent inhibition of Factor 7, relative to control.

murine Factor 7 mRNA = experiment: Multiple dose pharmacokinetic assay: liver Factor 7 mRNA in mice; assay type: in vivo, mouse; settings: for % Inhibition: liver Factor 7 mRNA, mice, relative to PBS control
Description: The duration of action of multiple doses of ISIS 403102 on antisense inhibition of murine Factor 7 and clotting time was evaluated. In a first group of mice, 25 mg/kg of ISIS 403102 was injected subcutaneously as a single dose. Mice from the first group were sacrificed on days 1 and 3 after the single dose. In a second group of mice, 25 mg/kg of ISIS 403102 was administered subcutaneously twice a week for 1 week. Mice from the second group were sacrificed on day 3 after the last dose of ISIS 403102 was administered. In a third group of mice, 25 mg/kg of ISIS 403102 was administered subcutaneously twice a week for 2 weeks. Mice from the third group were sacrificed on day 3 after the last dose of ISIS 403102 was administered. In a fourth group of mice, 25 mg/kg of ISIS 403102 was administered subcutaneously twice a week for 3 weeks. Mice from the fourth group were sacrificed on days 2, 7, 14, 28, 42, and 56 after the last dose of ISIS 403102 was administered. A control group of 3 mice was injected with PBS in a single dose. Mice from the control group were sacrificed 1 day later. Mice in all groups were sacrificed by cervical dislocation following anesthesia with 150 mg/kg ketamine mixed with 10 mg/kg xylazine administered by intraperitoneal injection. Liver was harvested for RNA analysis and plasma was collected for clotting analysis (PT and aPTT) for mice in all groups.
RNA was extracted from liver tissue for quantitative RT-PCR analysis of Factor 7. Results are presented as percent inhibition of Factor 7, relative to PBS control. […] Inhibition increased through day 3 in the single dose treatment group. […] Inhibition increased through day 3 in the 2 dose treatment group.

| Substance | percent inhibition of Factor 7 mRNA, relative to untreated control cells (human Factor 7 mRNA; 3.125 nM) | percent inhibition of Factor 7 mRNA, relative to untreated control cells (human Factor 7 mRNA; 12.5 nM) | percent inhibition of Factor 7 mRNA, relative to untreated control cells (human Factor 7 mRNA; 25 nM) | percent inhibition of Factor 7 mRNA, relative to untreated control cells (human Factor 7 mRNA; 50 nM) | percent inhibition of Factor 7 mRNA, relative to untreated control cells (human Factor 7 mRNA; 100 nM) | percent inhibition of Factor 7 mRNA, relative to untreated control cells (human Factor 7 mRNA) | percent inhibition of Factor 7 (human Factor 7 mRNA; Table 3, 3.125 nM) | percent inhibition of Factor 7 (human Factor 7 mRNA; Table 3, 6.25 nM) | percent inhibition of Factor 7 (human Factor 7 mRNA; Table 3, 12.5 nM) | percent inhibition of Factor 7 (human Factor 7 mRNA; Table 3, 25.0 nM) | percent inhibition of Factor 7 (human Factor 7 mRNA; Table 3, 50.0 nM) | percent inhibition of Factor 7 (human Factor 7 mRNA; Table 3, 100.0 nM) | percent inhibition of Factor 7 (human Factor 7 mRNA; Table 7, 6.25 nM) | percent inhibition of Factor 7 (human Factor 7 mRNA; Table 7, 12.5 nM) | percent inhibition of Factor 7 (human Factor 7 mRNA; Table 7, 25.0 nM) | percent inhibition of Factor 7 (human Factor 7 mRNA; Table 7, 50.0 nM) | percent inhibition of Factor 7 (human Factor 7 mRNA; Table 7, 100.0 nM) | also measured |
| --- | --- | --- | --- | --- | --- | --- | --- | --- | --- | --- | --- | --- | --- | --- | --- | --- | --- | --- |
| 407939 (antisense eT*eG*e[5mC]*eA*eG*d[5mC]*d[5mC]*d[5mC]*dG*dG*d[5mC]*dA*d[5mC]*d[5mC]*d[5mC]*eA*eG*e[5mC]*eG*eA) [compound 407939] | 17% | 57% | 75% | 80% | 83% | 35% | 62% | 79% | 83% | 91% | 92% | 92% | 37% | 57% | 77% | 84% | 87% |  |
| CCATAGAACAGCTTCACAGG (sugars from the 5' end e5 d10 e5, backbone and methylation of C not given here) [ISIS 403102] |  |  |  |  |  |  |  |  |  |  |  |  |  |  |  |  |  | % inhibition of murine Factor 7 protein (murine Factor 7 protein; 5 mg/kg subcutaneously twice a week for 3 weeks): 71%; % inhibition of murine Factor 7 protein (murine Factor 7 protein; 10 mg/kg subcutaneously twice a week for 3 weeks): 88%; % inhibition of murine Factor 7 protein (murine Factor 7 protein; 25 mg/kg subcutaneously twice a week for 3 weeks): 99%; % inhibition of murine Factor 7 protein (murine Factor 7 protein; 50 mg/kg subcutaneously twice a week for 3 weeks): 99%; reduction of murine Factor 7 protein over the PBS control (murine Factor 7 protein; 5-50 mg/kg twice a week for 3 weeks): dose-dependent reduction of murine Factor 7 protein; Factor 7 inhibition (murine Factor 7 mRNA; 6 doses of 25 mg/kg, days 14, 28, 42 and 56 after last dose): declined progressively; % Inhibition (murine Factor 7 mRNA; 25 mg/kg subcutaneously twice a week, 2 doses, 3 days after last dose): 86%; % Inhibition (murine Factor 7 mRNA; 25 mg/kg subcutaneously twice a week, 4 doses, 3 days after last dose): 91%; % Inhibition (murine Factor 7 mRNA; 25 mg/kg subcutaneously twice a week, 6 doses, 2 days after last dose): 83%; % Inhibition (murine Factor 7 mRNA; 25 mg/kg subcutaneously twice a week, 6 doses, 7 days after last dose): 88%; % Inhibition (murine Factor 7 mRNA; 25 mg/kg subcutaneously twice a week, 6 doses, 14 days after last dose): 64%; % Inhibition (murine Factor 7 mRNA; 25 mg/kg subcutaneously twice a week, 6 doses, 28 days after last dose): 33%; % Inhibition (murine Factor 7 mRNA; 25 mg/kg subcutaneously twice a week, 6 doses, 42 days after last dose): 5%; % Inhibition (murine Factor 7 mRNA; 25 mg/kg subcutaneously twice a week, 6 doses, 56 days after last dose): 11%; % Inhibition (murine Factor 7 mRNA; 25 mg/kg subcutaneously, 1 dose, 1 day after last dose): 44%; % Inhibition (murine Factor 7 mRNA; 25 mg/kg subcutaneously, 1 dose, 3 days after last dose): 74%; inhibition of Factor 7 mRNA (murine Factor 7 mRNA; single dose 25 mg/kg subcutaneously): inhibition of Factor 7 as early as day 1 |
| 407935 (antisense eA*eT*eG*e[5mC]*eA*dT*dG*dG*dT*dG*dA*dT*dG*d[5mC]*dT*eT*e[5mC]*eT*eG*eA) [compound 407935] | 19% | 58% | 70% | 85% | 87% | 39% | 57% | 76% | 78% | 89% | 90% | 89% | 38% | 53% | 70% | 82% | 86% |  |
